# Data: patent US20240425464A1, “Substituted Monohydrazides as Potent Antifungal Agents” (University of Kentucky Research Foundation, priority 2023, published 2024)
# Read-outs that look alike come from different tables or passages of the source.
# Key:
# Test in all cases: MIC determination by in vitro antifungal assay
# Format in all cases: cell-based, Candida auris
# [1] = system: C. auris AR Bank #389
# Procedure: (§1) The antifungal agent amphotericin B (AmB) was purchased from VWR (Radnor PA, USA). AmB was dissolved in DMSO at a final concentration of 5 mg/mL and was stored at −20° C., protected from light. Candida albicans American Type Culture Collection (ATCC) 10231 (strain A), C. albicans ATCC 64124 (B), and C. albicans ATCC MYA-2876 (C) were obtained from Utah State University. C. albicans ATCC 90819 (D), C. albicans ATCC MYA-2310 (E), C. albicans ATCC MYA-1237 (F), C. albicans ATCC MYA-1003 (G), Candida glabrata ATCC 2001 (H), Candida krusei ATCC 6258 (I), Candida parapsilosis ATCC 22019 (J), Cryptococcus neoformans ATCC MYA-895 (M), Aspergillus terreus ATCC MYA-3633 (N), and Aspergillus flavus ATCC MYA-3631 (0) were obtained from the American Type Culture Collection (ATCC; Manassas, VA, USA). Aspergillus nidulans ATCC 38163 (P) was obtained from University of Kentucky. Clinically derived Aspergillus fumigatus NRRL 163 (Q), A. fumigatus NRRL 5109 (R), and A. fumigatus NRRL 6113 (S) were obtained from Northern Regional Research Laboratory (NRRL). Candida auris 384 (K), C. auris 390 (L), and fungal strains 381-400 (including 10 C. auris (AR Bank #381-390), 3 Candida duobushaemulonii (AR Bank #391, AR Bank #392, and AR Bank #394), 2 Candida haemulonii (AR Bank #393 and AR Bank #395), 1 Kodameae ohmeri (AR Bank #396), 1 C. krusei (AR Bank #397), 1 Candida lusitaniae (AR Bank #398), and 2 Saccharomyces cerevisiae strains (AR Bank #399 and AR Bank #400)) were part of a larger fungal library from the AR Bank maintained by the Centers for Disease Control and Prevention (CDC; Atlanta, GA, USA). Filamentous fungi and yeasts were cultivated at 35° C. in RPMI 1640 medium (with L-glutamine, without sodium bicarbonate, Sigma-Aldrich, St. Louis, MO) buffered to a pH of 7.0 with 0.165 M morpholinepropanesulfonic acid (MOPS) buffer (Sigma-Aldrich). For cytotoxicity assays, HepG2 and the mouse macrophage cell line J774A.1 were obtained from University of Kentucky. The human embryonic kidney cell line, HEK-293, was bought from the ATCC. Mammalian cells were grown in Dulbecco's Modified Eagle's Medium (DMEM) (from VWR) with 10% fetal bovine serum (FBS) (from VWR) and 1% Pen/Strep (from ATCC). Cell lines were cultured at 37° C. with 5% CO2 and passaged by trypsinization with 0.05% trypsin: 0.53 mM EDTA (from Sigma-Aldrich).
# (§2) From the actively growing yeast culture, 100 µL were then transferred to 900 μL of RPMI 1640 medium and re-adjusted to achieve OD600 of 0.12 (˜1×10^6 CFU/mL). The cell suspension was further diluted to achieve 1:100 in RPMI 1640 medium.
# [2] = system: C. auris AR Bank #381
# Procedure: as §1, §2
# [3] = system: C. auris AR Bank #387
# Procedure: as §1, §2
# [4] = system: C. auris AR Bank #385
# Procedure: as §1, §2
# [5] = system: C. auris AR Bank #386
# Procedure: as §1, §2
# [6] = system: C. auris AR Bank #388
# Procedure: as §1, §2
# [7] = system: C. auris AR Bank #382
# Procedure: as §1, §2
# [8] = system: C. auris AR Bank #383
# Procedure: as §1, §2
# [9] = C. auris AR Bank # 389 (Table 2B)
# [10] = C. auris AR Bank # 381 (Table 2B)
# [11] = C. auris AR Bank # 387 (Table 2B)
# [12] = C. auris AR Bank # 385 (Table 2B)
# [13] = C. auris AR Bank # 386 (Table 2B)
# [14] = C. auris AR Bank # 388 (Table 2B)
# [15] = C. auris AR Bank # 382 (Table 2B)
# [16] = C. auris AR Bank # 383 (Table 2B)
# [17] = Candidozyma auris, C. auris AR Bank # 389 (Table 2B), read-out: MIC
# [18] = Candidozyma auris, C. auris AR Bank # 381 (Table 2B), read-out: MIC
# [19] = Candidozyma auris, C. auris AR Bank # 387 (Table 2B), read-out: MIC
# [20] = Candidozyma auris, C. auris AR Bank # 385 (Table 2B), read-out: MIC
# [21] = Candidozyma auris, C. auris AR Bank # 386 (Table 2B), read-out: MIC
# [22] = Candidozyma auris, C. auris AR Bank # 388 (Table 2B), read-out: MIC
# [23] = Candidozyma auris, C. auris AR Bank # 382 (Table 2B), read-out: MIC
# [24] = Candidozyma auris, C. auris AR Bank # 383 (Table 2B), read-out: MIC
SMILES,"MIC [1, 9]","MIC [2, 10]","MIC [3, 11]","MIC [4, 12]","MIC [5, 13]","MIC [6, 14]","MIC [7, 15]","MIC [8, 16]",MIC ([1]; C. auris AR Bank #389),MIC ([2]; C. auris AR Bank #381),MIC ([3]; C. auris AR Bank #387),MIC ([4]; C. auris AR Bank #385),MIC ([5]; C. auris AR Bank #386),MIC ([6]; C. auris AR Bank #388),MIC ([7]; C. auris AR Bank #382),MIC ([8]; C. auris AR Bank #383),further results
O=C(NNc1ccc(Cl)cc1)c1nc(F)ccc1F [Compound 8e],7.8 μg/mL^−1,7.8 μg/mL^−1,7.8 μg/mL^−1,3.9 μg/mL^−1,15.6 μg/mL^−1,15.6 μg/mL^−1,7.8 μg/mL^−1,7.8 μg/mL^−1,,,,,,,,,
O=C(NNc1ccc(Cl)cc1)c1ccccn1 [Compound 2e],,,,,,,,,0.98 μg/mL^−1,1.95 μg/mL^−1,1.95 μg/mL^−1,1.95 μg/mL^−1,0.98 μg/mL^−1,1.95 μg/mL^−1,3.9 μg/mL^−1,1.95 μg/mL^−1,
O=C(NNc1cc(Cl)cc(Cl)c1)c1ccc(F)cc1F [Compound 1j],,,,,,,,,,,,,,,,,"MIC [1, 17]: > 31.3 µg/mL; MIC [2, 18]: > 31.3 µg/mL; MIC [3, 19]: > 31.3 µg/mL; MIC [4, 20]: 31.3 µg/mL; MIC [5, 21]: > 31.3 µg/mL; MIC [6, 22]: > 31.3 µg/mL; MIC [7, 23]: 15.6 µg/mL; MIC [8, 24]: > 31.3 µg/mL"
O=C(NNc1cccc(Cl)c1)c1ccccn1 [Compound 2b],,,,,,,,,0.49 μg/mL^−1,0.98 μg/mL^−1,0.49 μg/mL^−1,0.49 μg/mL^−1,0.24 μg/mL^−1,0.49 μg/mL^−1,0.49 μg/mL^−1,0.49 μg/mL^−1,
COc1cccc(NNC(=O)c2cnccn2)c1 [Compound 9c],,,,,,,,,,,,,,,,,"MIC ([1]; Candidozyma auris, C. auris AR Bank #389, read-out: MIC): 0.98 µg/mL; MIC ([2]; Candidozyma auris, C. auris AR Bank #381, read-out: MIC): 1.95 µg/mL; MIC ([3]; Candidozyma auris, C. auris AR Bank #387, read-out: MIC): 0.98 µg/mL; MIC ([4]; Candidozyma auris, C. auris AR Bank #385, read-out: MIC): 7.8 µg/mL; MIC ([5]; Candidozyma auris, C. auris AR Bank #386, read-out: MIC): 0.49 µg/mL; MIC ([6]; Candidozyma auris, C. auris AR Bank #388, read-out: MIC): 3.9 µg/mL; MIC ([7]; Candidozyma auris, C. auris AR Bank #382, read-out: MIC): 0.98 µg/mL; MIC ([8]; Candidozyma auris, C. auris AR Bank #383, read-out: MIC): 1.95 µg/mL"
O=C(NNc1cccc(F)c1)c1ccccn1 [Compound 2a],,,,,,,,,0.12 μg/mL^−1,0.49 μg/mL^−1,0.49 μg/mL^−1,0.98 μg/mL^−1,0.49 μg/mL^−1,0.49 μg/mL^−1,0.98 μg/mL^−1,1.95 μg/mL^−1,
COc1ccc(NNC(=O)c2ncc(F)cc2F)cc1 [Compound 7f],,,,,,,,,,,,,,,,,"MIC [1, 17]: 0.98 µg/mL; MIC [2, 18]: 0.98 µg/mL; MIC [3, 19]: 0.98 µg/mL; MIC [4, 20]: 0.49 µg/mL; MIC [5, 21]: 0.98 µg/mL; MIC [6, 22]: 0.98 µg/mL; MIC [7, 23]: 0.98 µg/mL; MIC [8, 24]: 0.98 µg/mL"
"C[C@@H]1[C@H](O)[C@@H](C)/C=C/C=C/C=C/C=C/C=C/C=C/C=C/[C@H](O[C@@H]2O[C@H](C)[C@@H](O)[C@H](N)[C@@H]2O)C[C@@H]2O[C@](O)(C[C@@H](O)C[C@@H](O)[C@H](O)CC[C@@H](O)C[C@@H](O)CC(=O)O[C@H]1C)C[C@H](O)[C@H]2C(=O)O [AmB, amphotericin B, reference compound]",1.95 μg/mL^−1,0.98 μg/mL^−1,0.98 μg/mL^−1,1.95 μg/mL^−1,0.98 μg/mL^−1,1.95 μg/mL^−1,0.98 μg/mL^−1,1.95 μg/mL^−1,1.95 μg/mL^−1,0.98 μg/mL^−1,0.98 μg/mL^−1,1.95 μg/mL^−1,0.98 μg/mL^−1,1.95 μg/mL^−1,0.98 μg/mL^−1,1.95 μg/mL^−1,
O=C(NNc1ccc(F)cc1)c1ccc(F)cn1 [Compound 3d],1.95 μg/mL^−1,1.95 μg/mL^−1,0.98 μg/mL^−1,0.98 μg/mL^−1,1.95 μg/mL^−1,1.95 μg/mL^−1,0.98 μg/mL^−1,1.95 μg/mL^−1,,,,,,,,,
